# Results reported in patent US20240277683A1, “COMPOUNDS” (CTXT PTY LTD, priority 2018, published 2024).
# Read-outs that look alike come from different tables or passages of the source.
# Legend:
# Type in all cases: cell-based
# Details in all cases: Homo sapiens
# [1] = system: acetylation of the histone H3K23 marker in U2OS cells; experiment: Histone H3 Lysine 23 Acetylation Biomarker Assay
# Method: Compounds may be tested for their ability to inhibit acetylation of the histone H3K23 marker in the following assay:
# The cell line U2OS was seeded at a density of 9,000 cells per well in 96 well optical quality tissue culture plates in RPMI medium and 10% foetal bovine serum, and allowed to adhere for 24 hours under standard culture conditions (37 degree Celsius, 5% CO2). At the end of this period the medium was aspirated. […] After incubation for 24 hours, the cells were fixed with 3.7% formaldehyde in PBS for 20 minutes at room temperature, washed (5×5 minutes) with phosphate buffer saline containing 0.1% Tween 20 and blocked with Odyssey blocking buffer (LI-COR, Lincoln, NE) containing 0.1% TritonX100. Anti-H3K23ac specific antibody (Abcam ab177275) in Odyssey blocking buffer containing 0.1% Tween 20 was added and incubated for 16 hours at 4 degree Celsius. […] Plates were washed as previously and read on a PerkinElmer Phenix high content imaging platform.
# [2] = system: acetylation of the histone H3 Lysine 14 marker in U2OS cells; experiment: Histone H3 Lysine 14 Acetylation Biomarker Assay
# Method: Compounds may be tested for their ability to inhibit acetylation of the histone H3 Lysine 14 marker in the following assay:
# (§1) The cell line U2OS was seeded at a density of 3,000 cells per well in 384-well optical quality tissue culture plates in RPMI medium supplemented with 10% foetal bovine serum and 10 mM Hepes. The cells were allowed to adhere for 24 hours under standard culture conditions (37 degree Celsius, 5% CO2). At the end of this period the cells were washed with serum free medium. […] Plates were washed and read on a PerkinElmer Opera HCS high content imaging platform.
# [3] = system: histone H2A.Z Lysine 7 acetylation marker in U2OS cells; experiment: H2A.Z Lysine 7 Acetylation Biomarker Assay
# Method: Compounds may be tested for their ability to inhibit the histone H2A.Z Lysine 7 acetylation marker in the following assay:
# as §1
# [4] = H3K23ac, U2OS cells, 24 hours, read-out: IC50
# [5] = H3K14ac, U2OS cells, serum free medium, 24 hours, read-out: IC50
# [6] = H2A.ZK7ac, U2OS cells, serum free medium, 24 hours, read-out: IC50
structure (smiles),measurement,setting,value
"COc1ccccc1-c1cc(NS(=O)(=O)Cc2ccccc2)no1 [Example 2, N-(5-(2-Methoxyphenyl)isoxazol-3-yl)-1-phenylmethanesulfonamide]",IC50,"[1]; U2OS, 24 h",> 10000 nM
"COc1ccccc1-c1cc(NS(=O)(=O)c2ccccc2)no1 [Example 3, N-(5-(2-Methoxyphenyl)isoxazol-3-yl)benzenesulfonamide]",IC50,"[1]; U2OS, 24 h",> 10000 nM
same,IC50,"[2]; U2OS, 24 h",39200 nM
same,IC50,"[3]; U2OS, 24 h",> 40000 nM
"COc1ccccc1-c1cc(NS(=O)(=O)CCc2ccccc2)no1 [Example 4, N-(5-(2-Methoxyphenyl)isoxazol-3-yl)-2-phenylethane-1-sulfonamide]",IC50,"[1]; U2OS, 24 h",> 10000 nM
"CCOc1ccccc1-c1cc(NS(=O)(=O)c2c(OC)cccc2OC)no1 [Example 5, N-(5-(2-Ethoxyphenyl)isoxazol-3-yl)-2,6-dimethoxybenzenesulfonamide]",IC50,"[1]; U2OS, 24 h",895 nM
same,IC50,"[2]; U2OS, 24 h",2330 nM
same,IC50,"[3]; U2OS, 24 h",5640 nM
"COc1ccc(OC)c(-c2cc(NS(=O)(=O)c3c(OC)cc(-c4ccccc4)cc3OC)no2)c1 [Example 6, N-(5-(2,5-Dimethoxyphenyl)isoxazol-3-yl)-3,5-dimethoxy-[1,1′-biphenyl]-4-sulfonamide]",IC50,"[1]; U2OS, 24 h",471 nM
same,IC50,"[2]; U2OS, 24 h",526 nM
same,IC50,"[3]; U2OS, 24 h",1350 nM
"COc1ccc(OC)c(-c2cc(NS(=O)(=O)c3c(OC)cccc3OC)no2)c1 [Example 7, N-(5-(2,5-Dimethoxyphenyl)isoxazol-3-yl)-2,6-dimethoxybenzenesulfonamide]",IC50,"[1]; U2OS, 24 h",49.1 nM
same,IC50,"[2]; U2OS, 24 h",496 nM
same,IC50,"[3]; U2OS, 24 h",2190 nM
"COc1ccc(C2CC2)cc1-c1cc(NS(=O)(=O)c2c(OC)cccc2OC)no1 [Example 8, N-(5-(5-Cyclopropyl-2-methoxyphenyl)isoxazol-3-yl)-2,6-dimethoxybenzenesulfonamide]",IC50,"[1]; U2OS, 24 h",51.8 nM
same,IC50,"[2]; U2OS, 24 h",345 nM
same,IC50,"[3]; U2OS, 24 h",3270 nM
"COc1ccccc1-c1cc(NS(=O)(=O)c2c(OC)ccc(-c3ccccc3)c2OC)no1 [Example 10, 2,4-Dimethoxy-N-(5-(2-methoxyphenyl)isoxazol-3-yl)-[1,1′-biphenyl]-3-sulfonamide]",IC50,"[2]; U2OS, 24 h",4140 nM
same,IC50,"[3]; U2OS, 24 h",> 40000 nM
"COc1ccccc1-c1cc(NS(=O)(=O)c2c(OC)cc(-c3ccccc3)cc2OC)no1 [Example 11, 3,5-Dimethoxy-N-(5-(2-methoxyphenyl)isoxazol-3-yl)-[1,1′-biphenyl]-4-sulfonamide]",IC50,"[2]; U2OS, 24 h",2740 nM
same,IC50,"[3]; U2OS, 24 h",5320 nM
"CCc1ccc(OC)c(S(=O)(=O)Nc2cc(-c3ccc(OC)cc3OC)on2)c1 [Example 12, N-(5-(2,4-Dimethoxyphenyl)isoxazol-3-yl)-5-ethyl-2-methoxybenzenesulfonamide]",IC50,"[2]; U2OS, 24 h",> 40000 nM
same,IC50,"[3]; U2OS, 24 h",> 40000 nM
"CCc1ccc(OC)c(S(=O)(=O)Nc2cc(-c3cccc(OC)c3)on2)c1 [Example 13, 5-Ethyl-2-methoxy-N-(5-(3-methoxyphenyl)isoxazol-3-yl)benzenesulfonamide]",IC50,"[2]; U2OS, 24 h",22400 nM
"COc1ccc(OC(C)C)c(-c2cc(NS(=O)(=O)c3c(OC)cccc3OC)no2)c1 [Example 14, N-(5-(2-Isopropoxy-5-methoxyphenyl)isoxazol-3-yl)-2,6-dimethoxybenzenesulfonamide]",IC50,[1]; [4],132 nM
same,IC50,[2]; [5],220 nM
same,IC50,[3]; [6],2500 nM
"COc1ccc(Cl)cc1-c1cc(NS(=O)(=O)c2c(OC)cccc2OC)no1 [Example 15, N-(5-(5-Chloro-2-methoxyphenyl)isoxazol-3-yl)-2,6-dimethoxybenzenesulfonamide]",IC50,[1]; [4],141 nM
same,IC50,[2]; [5],450 nM
same,IC50,[3]; [6],12100 nM
"CCOc1ccc(OC)cc1-c1cc(NS(=O)(=O)c2c(OC)cccc2OC)no1 [Example 16, N-(5-(2-Ethoxy-5-methoxyphenyl)isoxazol-3-yl)-2,6-dimethoxybenzenesulfonamide]",IC50,[1]; [4],117 nM
same,IC50,[2]; [5],193 nM
same,IC50,[3]; [6],1770 nM
"COc1ccccc1-c1nnc(NS(=O)(=O)c2c(OC)cccc2OC)s1 [Example 17, 2,6-Dimethoxy-N-(5-(2-methoxyphenyl)-1,3,4-thiadiazol-2-yl)benzenesulfonamide]",IC50,[1]; [4],2260 nM
same,IC50,[2]; [5],3200 nM
same,IC50,[3]; [6],29300 nM
"COc1ccc(-c2ncco2)cc1-c1cc(NS(=O)(=O)c2c(OC)cccc2OC)no1 [Example 18, 2,6-Dimethoxy-N-(5-(2-methoxy-5-(oxazol-2-yl)phenyl)isoxazol-3-yl)benzenesulfonamide]",IC50,[1]; [4],1530 nM
same,IC50,[2]; [5],3840 nM
same,IC50,[3]; [6],19900 nM
"COc1ccc(CC2CCCCC2)cc1-c1cc(NS(=O)(=O)c2c(OC)cccc2OC)no1 [Example 19, N-(5-(5-(Cyclohexylmethyl)-2-methoxyphenyl)isoxazol-3-yl)-2,6-dimethoxybenzenesulfonamide]",IC50,[1]; [4],> 10000 nM
same,IC50,[3]; [6],5420 nM
"COc1cc(Cl)ccc1-c1cc(NS(=O)(=O)c2c(OC)cccc2OC)no1 [Example 21, N-(5-(4-Chloro-2-methoxyphenyl)isoxazol-3-yl)-2,6-dimethoxybenzenesulfonamide]",IC50,[2]; [5],> 40000 nM
same,IC50,[3]; [6],> 40000 nM
"COc1cccc(OC)c1S(=O)(=O)Nc1cc(-c2ccccc2OC(F)(F)F)on1 [Example 22, 2,6-Dimethoxy-N-(5-(2-(trifluoromethoxy)phenyl)isoxazol-3-yl)benzenesulfonamide]",IC50,"[1]; U2OS, 24 h",2130 nM
same,IC50,"[2]; U2OS, 24 h",762 nM
same,IC50,"[3]; U2OS, 24 h",4770 nM
"CCc1ccc(OC)cc1-c1cc(NS(=O)(=O)c2c(OC)cccc2OC)no1 [Example 23, N-(5-(2-Ethyl-5-methoxyphenyl)isoxazol-3-yl)-2,6-dimethoxybenzenesulfonamide]",IC50,[1]; [4],178 nM
same,IC50,[2]; [5],216 nM
same,IC50,[3]; [6],9990 nM
"COc1ccccc1-c1cc(NS(=O)(=O)c2c(OC)cccc2OC)no1 [Example 56, 2,6-Dimethoxy-N-(5-(2-methoxyphenyl)isoxazol-3-yl)benzenesulfonamide]",IC50,"[1]; U2OS, 24 h",2070 nM
same,IC50,"[2]; U2OS, 24 h",2640 nM
same,IC50,"[3]; U2OS, 24 h",24100 nM
"COc1ccc(S(=O)(=O)Nc2cc(-c3ccccc3OC)on2)c(OC)c1 [Example 57, 2,4-Dimethoxy-N-(5-(2-methoxyphenyl)isoxazol-3-yl)benzenesulfonamide]",IC50,"[2]; U2OS, 24 h",> 40000 nM
"CCc1ccc(OC)c(S(=O)(=O)Nc2cc(-c3ccccc3OC)on2)c1 [Example 58, 5-Ethyl-2-methoxy-N-(5-(2-methoxyphenyl)isoxazol-3-yl)benzenesulfonamide]",IC50,"[2]; U2OS, 24 h",22400 nM
same,IC50,"[3]; U2OS, 24 h",> 40000 nM
"COc1ccc(OC)c(-c2nnc(NS(=O)(=O)c3c(OC)cccc3OC)s2)c1 [Example 70, N-(5-(2,5-Dimethoxyphenyl)-1,3,4-thiadiazol-2-yl)-2,6-dimethoxybenzenesulfonamide]",IC50,[1]; [4],275 nM
"COCc1ccc(OC)cc1-c1cc(NS(=O)(=O)c2c(OC)cccc2OC)no1 [Example 71, 2,6-Dimethoxy-N-(5-(5-methoxy-2-(methoxymethyl)phenyl)isoxazol-3-yl)benzenesulfonamide]",IC50,[1]; [4],69.3 nM
"COc1ccc(-c2ccn[nH]2)cc1-c1cc(NS(=O)(=O)c2c(OC)cccc2OC)no1 [Example 72, 2,6-Dimethoxy-N-(5-(2-methoxy-5-(1H-pyrazol-5-yl)phenyl)isoxazol-3-yl)benzenesulfonamide]",IC50,"[1]; U2OS, 24 h",204 nM
same,IC50,"[2]; U2OS, 24 h",575 nM
same,IC50,"[3]; U2OS, 24 h",4730 nM
"COCc1ccc(OC)c(-c2cc(NS(=O)(=O)c3c(OC)cccc3OC)no2)c1 [Example 73, 2,6-Dimethoxy-N-(5-(2-methoxy-5-(methoxymethyl)phenyl)isoxazol-3-yl)benzenesulfonamide]",IC50,"[1]; U2OS, 24 h",17.1 nM
same,IC50,"[2]; U2OS, 24 h",1290 nM
same,IC50,"[3]; U2OS, 24 h",35200 nM
"COCc1ccc(OC)cc1-c1nnc(NS(=O)(=O)c2c(OC)cccc2OC)s1 [Example 96, 2,6-Dimethoxy-N-(5-(5-methoxy-2-(methoxymethyl)phenyl)-1,3,4-thiadiazol-2-yl)benzenesulfonamide]",IC50,[1]; [4],3940 nM
same,IC50,[2]; [5],7380 nM
same,IC50,[3]; [6],27200 nM
"COc1ccccc1-c1cc(NS(=O)(=O)C2CCCCC2)no1 [Example 102, N-(5-(2-Methoxyphenyl)isoxazol-3-yl)cyclohexanesulfonamide]",IC50,[2]; [5],25600 nM
same,IC50,[3]; [6],> 40000 nM
"COc1cccc(OC)c1S(=O)(=O)Nc1nnc(-c2cc(Cl)ccc2OC(C)C)s1 [Example 111, N-(5-(5-Chloro-2-isopropoxyphenyl)-1,3,4-thiadiazol-2-yl)-2,6-dimethoxybenzenesulfonamide]",IC50,[1]; [4],474 nM
"COCc1ccc(OC)c(-c2cc(NS(=O)(=O)Cc3ccccc3)no2)c1 [Example 112, N-(5-(2-Methoxy-5-(methoxymethyl)phenyl)isoxazol-3-yl)-1-phenylmethanesulfonamide]",IC50,[1]; [4],187 nM
"COc1ccccc1-c1cc(NS(=O)(=O)NC2CCCCC2)no1 [Example 117, N-Cyclohexyl((5-(2-methoxyphenyl)-1,2-oxazol-3-yl)amino)sulfonamide]",IC50,"[1]; U2OS, 24 h",5560 nM
"COc1ccc(-c2ccnn2C)cc1-c1cc(NS(=O)(=O)c2c(OC)cccc2OC)no1 [Example 119, 2,6-Dimethoxy-N-(5-(2-methoxy-5-(1-methyl-1H-pyrazol-5-yl)phenyl)isoxazol-3-yl)benzenesulfonamide]",IC50,[1]; [4],634 nM
